# Test results reported in patent US20140079636A1, “TARGETED THERAPEUTICS” (priority 2012, published 2014).
# Assays:
# [1] = target: T1, Hsp90α (Homo sapiens, UniProt P07900); experiment: Hsp90α binding assay (fluorescence polarization, FITC-labeled geldanamycin); settings: read-out: Hsp90 binding EC50
# T1 construct: purchased BPS Bioscience 50294
# Procedure: An Hsp90^α fluorescence assay kit from BPS Bioscience (Cat #50294) containing Hsp90 recombinant enzyme, FITC-labeled geldanamycin, assay buffer and a low binding 384-well plate was used to assay Hsp90^α binding. Dithiothreitol (DTT)(Cat #D0643) and bovine serum albumin (BSA)(Cat #A2153) were obtained from Sigma-Aldrich. Fluorescence polarization was measured using a PHERAstar microplate reader from BMG LABTECH GmbH, Ortenherg, Germany.
# The compounds were diluted to 1 mM in DMSO and loaded into a compound dilution plate to make 3-fold dilutions yielding a total of 8 concentrations. 1 µL of compound was transferred from the dilution plate to the low binding assay plate provided in the assay kit. 5 mL of Hsp90^□ binding solution was prepared having a final concentration of 7 ng/µL Hsp90^□, 5 nM FITC-labeled geldanamycin, 2 mM DTT and 0.1 mg/mL BSA. 49 μL of binding solution was added to each microplate well, incubated at room temperature for 1 hour, then read using the PHERAstar microplate reader. The high control sample contained no compound plus Hsp90^α; the low control sample contained no compound and no Hsp90^α. […] The IC50 was calculated using GraphPad Prism 4 software.
# [2] = tested on: MCF-7 breast cancer cells; experiment: Mouse xenograft efficacy in an MCF-7 breast cancer model; format: in vivo; settings: 150 or 100 mg/kg/1×wk IV, versus irinotecan alone or ganetespib + irinotecan
# Procedure: MCF-7 breast cancer cells were purchased from ATCC. […] Fetal bovine serum was then be added to the medium. The final concentration of fetal bovine serum was 10%. Cells were cultured at 37° C. and 5% CO2.
# Mice that were not put on treatment were euthanized. Animals were sourced through CRL (Wilmington, Mass.).
# [3] = tested on: HER2; experiment: Her2 degradation assay with BT-474 cell line (Example 12, FACS); format: cell-based, human; settings: BT-474 cells
# Excerpt: HER2 has emerged as a key target for anticancer drugs due to its intrinsic involvement in the phosphatidylinositol-3-kinase-Akt/proteinkinase B (PI3K-Akt) and the mitogen-activated protein kinase (MAPK) pathways, both of which suppress apoptosis and promote tumor cell survival, gene transcription, angiogenesis, cellular proliferation, migration, mitosis, and differentiation. The degradation of HER2 is a measure of efficacy of anticancer therapeutics that target Hsp90. Accordingly, the SDC-TRAP molecules of the invention that comprise a binding moiety that binds Hsp90 were tested in the following HER2 degradation assay.
# BT-474 cells (human breast cancer cell line ATCC HTB-20) were obtained from ATCC and seeded into 12-well tissue culture plates at 0.2×10^6/1.8 mL/well. […] Each test compound was titrated in 4-fold dilutions from 5 μM to 78 nM with DMSO and 200 μL of the titration was added to each well of the cell plate. The DMSO final concentration was 0.2%. Cells were incubated overnight at 37° C. in 5% CO2.
# Media was decanted from the plate, cells were washed 1× in PBS. 400 μL trypsin (EDTA) per well was added and the cells were incubated for 2 to 3 minutes. […] The cytometer readout was normalized and the potency of each compound is evaluated with IC50 calculated with XL Fit software.
# [4] = Tissue distribution of ganetespib in female CD-1 nu/nu mice bearing RERF human NSCLC xenografts; format: in vivo, mouse; settings: 5 min time point
# Procedure: Tissue Distribution of ganetespib in Female CD-1 nu/nu Mice Bearing RERF Human NSCLC Xenografts
# To confirm the distribution of ganetespib in blood, livers, kidneys, brains, hearts, lungs and tumors after IV administration of ganetespib to female CD-1 nu/nu mice bearing RERF human NSCLC xenografts, and to examine metabolic profiles of ganetespib in plasma, red blood cells, and above tissues.
# Animals: female CD-1 nu/nu mice bearing RERF human NSCLC xenografts (N=3/group)
# Dosage: 50 mg/kg Dose level: 10 mL/kg Formulation: 10% DMSO, 18% Cremophor RH40, 3.6% dextrose solution (DRD) Bleeding time points: 5 min, 6, 24 hr Collected tissues: blood (plasma and red blood cells (RBC)), liver, kidneys, brain, heart, lung, tumor
# Protein precipitation: 50 μL of 10 times diluted plasma or RBC+150 μL ACN (10 mM NH4OAc), vortexed and centrifuged at 10000 rpm for 8 min; 150 μL supernatant+150 μL water (10 mM NH4OAc)
# Protein precipitation: 100 μL homogenized tissue (1:3 tissue:PBS buffer)+100 μL ACN (10 mM NH4OAc), vortexed and centrifuged at 10000 rpm for 8 min
Structure (SMILES),EC50 [1] [nM],also measured
"CCc1c2c(nc3ccc(OC(=O)N4CCC(CCn5ccc6cc(-n7c(O)nnc7-c7cc(C(C)C)c(O)cc7O)ccc65)CC4)cc13)-c1cc3c(c(=O)n1C2)COC(=O)[C@]3(O)CC [SDC-TRAP-0063, 4,11-diethyl-4-hydroxy-3,14-dioxo-3,4,12,14-tetrahydro-1H-pyrano[3′,4′:6,7]indolizino[1,2-b]quinolin-9-yl 4-(2-(5-(3-(2,4-dihydroxy-5-isopropylphenyl)-5-hydroxy-4H-1,2,4-triazol-4-yl)-1H-indol-1-yl)ethyl)piperidine-1-carboxylate]",157,Tumor growth suppression (tumor volume) [2]: greater tumor growth suppression than effector moiety irinotecan alone or unconjugated binding moiety ganetespib and effector moiety irinotecan administered together
"CCc1c2c(nc3ccc(OC(=O)N4CCN(Cc5ccc(-n6c(O)nnc6-c6cc(C(C)C)c(O)cc6O)cc5)CC4)cc13)-c1cc3c(c(=O)n1C2)COC(=O)C3(O)CC (stereo not drawn) [SDC-TRAP-0046, 4,11-diethyl-4-hydroxy-3,14-dioxo-3,4,12,14-tetrahydro-1H-pyrano[3′,4′:6,7]indolizino[1,2-b]quinolin-9-yl 4-(4-(3-(2,4-dihydroxy-5-isopropylphenyl)-5-hydroxy-4H-1,2,4-triazol-4-yl)benzyl)piperazine-1-carboxylate]",102,
CC(C)c1cc(-c2nnc(O)n2-c2ccc(CN3CCN(C(=O)CCn4cc(F)c(=O)[nH]c4=O)CC3)cc2)c(O)cc1O [SDC-TRAP-0049],,IC50 [3]: > 5000 nM
"CCc1c2c(nc3ccc(OC(=O)N4CCC[C@H]4C(=O)N4CCN(c5ccc(-n6c(O)nnc6-c6cc(C(C)C)c(O)cc6O)cc5)CC4)cc13)-c1cc3c(c(=O)n1C2)COC(=O)[C@]3(O)CC [SDC-TRAP-0204, (S)—(S)-4,11-diethyl-4-hydroxy-3,14-dioxo-3,4,12,14-tetrahydro-1H-pyrano[3′,4′:6,7]indolizino[1,2-b]quinolin-9-yl 2-(4-(4-(3-(2,4-dihydroxy-5-isopropylphenyl)-5-hydroxy-4H-1,2,4-triazol-4-yl)phenyl)piperazine-1-carbonyl)pyrrolidine-1-carboxylate]",82.6,
"CCc1c2c(nc3ccc(O)cc13)-c1cc3c(c(=O)n1C2)COC(=O)[C@@]3(CC)OC(=O)N1CCC(CCn2ccc3cc(-n4c(O)nnc4-c4cc(C(C)C)c(O)cc4O)ccc32)CC1 [SDC-TRAP-0064, (S)-4,11-diethyl-9-hydroxy-3,14-dioxo-3,4,12,14-tetrahydro-1H-pyrano[3′,4′:6,7]indolizino[1,2-b]quinolin-4-yl 4-(2-(5-(3-(2,4-dihydroxy-5-isopropylphenyl)-5-hydroxy-4H-1,2,4-triazol-4-yl)-1H-indol-1-yl)ethyl)piperidine-1-carboxylate]",122,
"CCc1c2c(nc3ccc(OC(=O)N4CCN(c5ccc(-n6c(O)nnc6-c6cc(C(C)C)c(O)cc6O)cc5)CC4)cc13)-c1cc3c(c(=O)n1C2)COC(=O)C3(O)CC (stereo not drawn) [SDC-TRAP-0045, 4,11-diethyl-4-hydroxy-3,14-dioxo-3,4,12,14-tetrahydro-1H-pyrano[3′,4′:6,7]indolizino[1,2-b]quinolin-9-yl 4-(4-(3-(2,4-dihydroxy-5-isopropylphenyl)-5-hydroxy-4H-1,2,4-triazol-4-yl)phenyl)piperazine-1-carboxylate]",96.6,
CCNC(=O)c1nnc(-c2cc(C(C)C)c(O)cc2O)n1-c1ccc(OC2CCN(C(=O)[C@@H]3CCCN3C(=O)Oc3ccc4nc5c(c(CC)c4c3)Cn3c-5cc4c(c3=O)COC(=O)[C@]4(O)CC)CC2)cc1 [SDC-TRAP-0209],54.6,
"COc1cc(O)c(-c2nnc(C(=O)NC(C)C)n2-c2ccc(CN3CCC(C(=O)Nc4cccc5c4CN(C4CCC(=O)NC4=O)C5=O)CC3)cc2)cc1C(C)C (stereo not drawn) [SDC-TRAP-0115, N-(2-(2,6-dioxopiperidin-3-yl)-1-oxoisoindolin-4-yl)-1-(4-(3-(2-hydroxy-5-isopropyl-4-methoxyphenyl)-5-(isopropylcarbamoyl)-4H-1,2,4-triazol-4-yl)benzyl)piperidine-4-carboxamide]",203,
"CC(C)c1cc(-c2nnc(O)n2-c2ccc(CC3CCN(CC(=O)Nc4cccc5c4CN(C4CCC(=O)NC4=O)C5=O)CC3)cc2)c(O)cc1O (stereo not drawn) [SDC-TRAP-0116, 2-(4-(4-(3-(2,4-dihydroxy-5-isopropylphenyl)-5-hydroxy-4H-1,2,4-triazol-4-yl)benzyl)piperidin-1-yl)-N-(2-(2,6-dioxopiperidin-3-yl)-1-oxoisoindolin-4-yl)acetamide]",159,
"CCNC(=O)c1nnc(-c2cc(C(C)C)c(O)cc2O)n1-c1ccc(CN2CCC(C(=O)N3CCC(n4cc(-c5cnc(N)c(O[C@H](C)c6c(Cl)ccc(F)c6Cl)c5)cn4)CC3)CC2)cc1 [SDC-TRAP-0134, (R)-4-(4-((4-(4-(4-(6-amino-5-(1-(2,6-dichloro-3-fluorophenyl)ethoxy)pyridin-3-yl)-1H-pyrazol-1-yl)piperidine-1-carbonyl)piperidin-1-yl)methyl)phenyl)-5-(2,4-dihydroxy-5-isopropylphenyl)-N-ethyl-4H-1,2,4-triazole-3-carboxamide]",95.4,
"CCNC(=O)c1nnc(-c2cc(C(C)C)c(O)cc2O)n1-c1ccc(CN2CCC(C(=O)N3CCC(C(=O)N[C@H]4C[C@H](O[C@H]5C[C@](O)(C(=O)CO)Cc6c(O)c7c(c(O)c65)C(=O)c5c(OC)cccc5C7=O)O[C@@H](C)[C@H]4O)CC3)CC2)cc1 [SDC-TRAP-0198, 1-(1-(4-(3-(2,4-dihydroxy-5-isopropylphenyl)-5-(ethylcarbamoyl)-4H-1,2,4-triazol-4-yl)benzyl)piperidine-4-carbonyl)-N-((2S,3S,4S,6R)-3-hydroxy-2-methyl-6-(((1S,3S)-3,5,12-trihydroxy-3-(2-hydroxyacetyl)-10-methoxy-6,11-dioxo-1,2,3,4,6,11-hexahydrotetracen-1-yl)oxy)tetrahydro-2H-pyran-4-yl)piperidine-4-carboxamide]",93.3,
CCc1c2c(nc3ccc(OC(=O)N4CCC[C@H]4C(=O)N4CCC(CCn5ccc6cc(-n7c(O)nnc7-c7cc(C(C)C)c(O)cc7O)ccc65)CC4)cc13)-c1cc3c(c(=O)n1C2)COC(=O)[C@]3(O)CC [SDC-TRAP-0210],91,
"CC(C)c1cc(-c2nnc(O)n2-c2ccc(CC(=O)N(C)CCOC(=O)Nc3cccc4c3CN(C3CCC(=O)NC3=O)C4=O)cc2)c(O)cc1O (stereo not drawn) [SDC-TRAP-0127, 2-(2-(4-(3-(2,4-dihydroxy-5-isopropylphenyl)-5-hydroxy-4H-1,2,4-triazol-4-yl)phenyl)-N-methylacetamido)ethyl(2-(2,6-dioxopiperidin-3-yl)-1-oxoisoindolin-4-yl)carbamate]",102,
CC(C)c1cc(-c2n[nH]c(=O)n2-c2ccc3c(ccn3C)c2)c(O)cc1O [ganetespib],,Mean concentration in plasma relative to RBC (times higher) [4]: about 10
